Laboratory results taken from patent publication US20190175744A1, “INSULIN-INCRETIN CONJUGATES” (Merck Sharp & Dohme Corp., priority 2016, published 2019).
Where two headings read alike, the source gives them in different places.

What was measured:
human GLP1R = human GLP1R (Homo sapiens, UniProt P43220); assay: cAMP activity assay, cells expressing human GLP1R; type: cell-based
human GCGR = target: T1, human GCGR (Homo sapiens, UniProt P47871); assay: cAMP activity assay, cells expressing human GCGR; type: cell-based; conditions: for GCGR/GLP1R ratio: Table 5, ratio of hGCGR EC50 to hGLP1R EC50;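 on all read-outs here: cAMP production read by luminescence after one hour of peptide exposure at room temperature, EC50 from logistic curve fit, native glucagon and GLP-1 as control peptides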
T1 construct: expressed in transfected cells; grown with Blasticidin and Hygromycin
T1 sequence (P47871 26-477): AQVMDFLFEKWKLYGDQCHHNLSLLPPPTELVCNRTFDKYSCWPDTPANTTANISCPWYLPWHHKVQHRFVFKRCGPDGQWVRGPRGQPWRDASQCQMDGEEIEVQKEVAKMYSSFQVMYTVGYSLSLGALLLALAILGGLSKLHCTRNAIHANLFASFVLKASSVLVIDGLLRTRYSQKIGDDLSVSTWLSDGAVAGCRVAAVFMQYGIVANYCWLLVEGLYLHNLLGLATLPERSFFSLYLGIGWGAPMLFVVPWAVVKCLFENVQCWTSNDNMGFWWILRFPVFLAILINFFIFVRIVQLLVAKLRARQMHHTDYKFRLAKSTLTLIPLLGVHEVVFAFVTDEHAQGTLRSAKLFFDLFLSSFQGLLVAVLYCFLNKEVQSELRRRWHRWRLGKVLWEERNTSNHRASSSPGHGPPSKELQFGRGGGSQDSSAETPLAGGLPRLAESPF

[1] = Table 5, incretin peptides, cAMP, read-out: hGLP1R EC50

Chain of human GLP1R (P43220 24-463): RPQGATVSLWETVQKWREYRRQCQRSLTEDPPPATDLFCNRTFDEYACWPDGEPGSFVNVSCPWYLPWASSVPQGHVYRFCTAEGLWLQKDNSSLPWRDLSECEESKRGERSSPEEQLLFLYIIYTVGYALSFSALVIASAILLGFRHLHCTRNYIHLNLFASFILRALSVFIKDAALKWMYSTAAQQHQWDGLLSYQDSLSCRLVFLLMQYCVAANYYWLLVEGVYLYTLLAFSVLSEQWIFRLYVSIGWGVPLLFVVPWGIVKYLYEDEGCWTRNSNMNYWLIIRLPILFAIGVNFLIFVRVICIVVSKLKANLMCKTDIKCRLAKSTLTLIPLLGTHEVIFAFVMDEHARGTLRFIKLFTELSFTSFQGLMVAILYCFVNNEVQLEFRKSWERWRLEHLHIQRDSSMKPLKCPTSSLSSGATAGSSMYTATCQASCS

Row | SMILES | EC50 (human GLP1R) [pM] | EC50 (human GCGR) [pM] | GCGR/GLP1R ratio (human GCGR) | EC50 (human GLP1R; [1]) [pM]
1 | CCCCCCCCCCCCCCCC(=O)N[C@@H](CCC(=O)N[C@@H](CCC(=O)NCCCC[C@H](NC(=O)[C@H](CC(=O)O)NC(=O)[C@H](CO)NC(=O)[C@@H](NC(=O)[C@H](Cc1ccccc1)NC(=O)[C@@H](NC(=O)CNC(=O)[C@H](CCC(=O)O)NC(=O)[C@@H](CO)NC(=O)[C@@H](N)Cc1c[nH]cn1)[C@@H](C)O)[C@@H](C)O)C(=O)N[C@@H](CO)C(=O)N[C@@H](CCCCN)C(=O)N[C@@H](Cc1ccc(O)cc1)C(=O)N[C@@H](CC(C)C)C(=O)N[C@@H](CC(=O)O)C(=O)N[C@@H](CCC(=O)O)C(=O)N[C@@H](CCCNC(=N)N)C(=O)N[C@@H](C)C(=O)N[C@@H](C)C(=O)N[C@@H](CCC(N)=O)C(=O)N[C@@H](CC(=O)O)C(=O)N[C@@H](Cc1ccccc1)C(=O)N[C@H](C(=O)N[C@@H](CCCCN=[N+]=[N-])C(=O)N[C@@H](Cc1c[nH]c2ccccc12)C(=O)N[C@@H](CC(C)C)C(=O)N[C@@H](CC(C)C)C(=O)N[C@@H](CC(=O)O)C(=O)N[C@H](C(N)=O)[C@@H](C)O)C(C)C)C(=O)O)C(=O)O [PEP75] | 70 | > 5000 | >72 | 
2 | CCCCCCCCCCCCCCCC(=O)N[C@@H](CCC(=O)N[C@@H](CCC(=O)NCCCC[C@H](NC(=O)[C@H](CC(=O)O)NC(=O)[C@H](CO)NC(=O)[C@@H](NC(=O)[C@H](Cc1ccccc1)NC(=O)[C@@H](NC(=O)CNC(=O)[C@H](CCC(N)=O)NC(=O)C(C)(C)NC(=O)[C@@H](N)Cc1c[nH]cn1)[C@@H](C)O)[C@@H](C)O)C(=O)N[C@@H](CO)C(=O)N[C@@H](CCCCN)C(=O)N[C@@H](Cc1ccc(O)cc1)C(=O)N[C@@H](CC(C)C)C(=O)N[C@@H](CC(=O)O)C(=O)NC(C)(C)C(=O)N[C@@H](CCCNC(=N)N)C(=O)N[C@@H](C)C(=O)N[C@@H](C)C(=O)N[C@@H](CCC(N)=O)C(=O)N[C@@H](CC(=O)O)C(=O)N[C@@H](Cc1ccccc1)C(=O)N[C@H](C(=O)N[C@@H](CCC(N)=O)C(=O)N[C@@H](Cc1c[nH]c2ccccc12)C(=O)N[C@@H](CC(C)C)C(=O)N[C@@H](CC(C)C)C(=O)N[C@@H](CC(=O)O)C(=O)N[C@H](C(=O)N[C@@H](CCCCN)C(=O)N[C@@H](CCCCN=[N+]=[N-])C(N)=O)[C@@H](C)O)C(C)C)C(=O)O)C(=O)O [PEP19] | 340 |  | 1.4 | 
3 | CC(C)C[C@H](NC(=O)[C@H](Cc1ccc(O)cc1)NC(=O)[C@H](CCCCN)NC(=O)[C@H](CO)NC(=O)[C@H](Cc1ccc(O)cc1)NC(=O)[C@H](CC(=O)O)NC(=O)[C@H](CO)NC(=O)[C@@H](NC(=O)[C@H](Cc1ccccc1)NC(=O)[C@@H](NC(=O)CNC(=O)[C@H](CCC(N)=O)NC(=O)C(C)(C)NC(=O)[C@@H](N)Cc1c[nH]cn1)[C@@H](C)O)[C@@H](C)O)C(=O)N[C@@H](CC(=O)O)C(=O)N[C@@H](C)C(=O)N[C@@H](CCCNC(=N)N)C(=O)N[C@@H](C)C(=O)N[C@@H](C)C(=O)N[C@@H](CCCCNC(=O)COCCOCCNC(=O)COCCOCCNC(=O)CC[C@H](NC(=O)CCCCCCCCCCCCCCCCC(=O)O)C(=O)O)C(=O)N[C@@H](CC(=O)O)C(=O)N[C@@H](Cc1ccccc1)C(=O)N[C@H](C(=O)N[C@@H](CCCCN=[N+]=[N-])C(=O)N[C@@H](Cc1c[nH]c2ccccc12)C(=O)N[C@@H](CC(C)C)C(=O)N[C@@H](CCS(C)(=O)=O)C(=O)N[C@@H](CC(=O)O)C(=O)N[C@H](C(N)=O)[C@@H](C)O)C(C)C [PEP30] |  |  | 4.5 | 500
4 | CCCCCCCCCCCCCCCC(=O)N[C@@H](CCC(=O)N[C@@H](CCC(=O)NCCCC[C@H](NC(=O)[C@H](CC(=O)O)NC(=O)[C@H](CO)NC(=O)[C@@H](NC(=O)[C@H](Cc1ccccc1)NC(=O)[C@@H](NC(=O)CNC(=O)[C@H](CCC(N)=O)NC(=O)[C@@H](CO)NC(=O)[C@@H](N)Cc1c[nH]cn1)[C@@H](C)O)[C@@H](C)O)C(=O)N[C@@H](CO)C(=O)N[C@@H](CCCCN)C(=O)N[C@@H](Cc1ccc(O)cc1)C(=O)N[C@@H](CC(C)C)C(=O)N[C@@H](CC(=O)O)C(=O)N[C@@H](CCC(=O)O)C(=O)N[C@@H](CCCNC(=N)N)C(=O)N[C@@H](C)C(=O)N[C@@H](C)C(=O)N[C@@H](CCC(N)=O)C(=O)N[C@@H](CC(=O)O)C(=O)N[C@@H](Cc1ccccc1)C(=O)N[C@H](C(=O)N[C@@H](CCCCN=[N+]=[N-])C(=O)N[C@@H](Cc1c[nH]c2ccccc12)C(=O)N[C@@H](CC(C)C)C(=O)N[C@@H](CC(C)C)C(=O)N[C@@H](CCC(=O)N[C@H](C(N)=O)[C@@H](C)O)C(=O)O)C(C)C)C(=O)O)C(=O)O [PEP11] |  | 30 | 0.4 | 60
5 | CC(C)C[C@H](NC(=O)[C@H](Cc1ccc(O)cc1)NC(=O)[C@H](CCCCN)NC(=O)[C@H](CO)NC(=O)[C@H](CCCCN)NC(=O)[C@H](CC(=O)O)NC(=O)[C@H](CO)NC(=O)[C@@H](NC(=O)[C@H](Cc1ccccc1)NC(=O)[C@@H](NC(=O)CNC(=O)[C@H](CCC(N)=O)NC(=O)[C@@H](CO)NC(=O)[C@@H](N)Cc1c[nH]cn1)[C@@H](C)O)[C@@H](C)O)C(=O)N[C@@H](CC(=O)O)C(=O)N[C@@H](CCC(=O)O)C(=O)N[C@@H](CCCNC(=N)N)C(=O)N[C@@H](C)C(=O)N[C@@H](C)C(=O)N[C@@H](CCCCN=[N+]=[N-])C(=O)N[C@@H](CC(=O)O)C(=O)N[C@@H](Cc1ccccc1)C(=O)N[C@H](C(=O)N[C@@H](CCC(N)=O)C(=O)N[C@@H](Cc1c[nH]c2ccccc12)C(=O)N[C@@H](CC(C)C)C(=O)N[C@@H](CC(C)C)C(=O)N[C@@H](CC(=O)O)C(=O)N[C@H](C(N)=O)[C@@H](C)O)C(C)C [PEP71] |  | 120 | 2.0 | 60
6 | CC(C)C[C@H](NC(=O)[C@H](Cc1ccc(O)cc1)NC(=O)[C@H](CCCCN)NC(=O)[C@H](CO)NC(=O)[C@H](Cc1ccc(O)cc1)NC(=O)[C@H](CC(=O)O)NC(=O)[C@H](CO)NC(=O)[C@@H](NC(=O)[C@H](Cc1ccccc1)NC(=O)[C@@H](NC(=O)CNC(=O)[C@H](CCC(N)=O)NC(=O)[C@@H](CO)NC(=O)[C@@H](N)Cc1c[nH]cn1)[C@@H](C)O)[C@@H](C)O)C(=O)N[C@@H](CC(=O)O)C(=O)N[C@@H](CCC(=O)O)C(=O)N[C@@H](CCCNC(=N)N)C(=O)N[C@@H](C)C(=O)N[C@@H](C)C(=O)N[C@@H](CCCCNC(=O)COCCOCCNC(=O)COCCOCCNC(=O)CC[C@H](NC(=O)CCCCCCCCCCCCCCCN=[N+]=[N-])C(=O)O)C(=O)N[C@@H](CC(=O)O)C(=O)N[C@@H](Cc1ccccc1)C(=O)N[C@H](C(=O)N[C@@H](CCC(N)=O)C(=O)N[C@@H](Cc1c[nH]c2ccccc12)C(=O)N[C@@H](CC(C)C)C(=O)N[C@@H](CC(C)C)C(=O)N[C@@H](CC(=O)O)C(=O)N[C@H](C(N)=O)[C@@H](C)O)C(C)C [PEP26] | 120 | 120 | 1.0 | 
